What was measured:
ES cells [1] = test: Examination of cell survival (MTT assay); format: cell-based, mouse; settings: for relative cell survival rate: control = 100
Description: The following steps were conducted in order to culture ES cells: • (1) preparing a stem cell medium: DMEM+15% heat-inactivated FBS+NEAA (0.1 mM)+L-glutamine (2 mM)+β-mercaptoethanol (0.2 mM); • (2) preparing a BP-containing solution: dissolving BP into DMSO to form a BP-containing solution (100 mg/ml), and storing the solution at −20° C.; • (3) adding different amounts of the BP-containing solution in step (2) into the stem cell medium in step (1) to form different BP-containing mediums, wherein the amount of BP were about 5, 10, 20 or 40 μg per milliliter of the stem cell medium respectively (i.e. the experimental group mediums: BP5, BP10, BP20 and BP40); and • (4) using the BP-containing medium of in step (3) to culture a ES cell (retrieved from the embryos in the blastula stage of 129sv/J mice) at 37° C., 5% CO2 and 95% humidity on the feeder cells provided by Example 1.
In this example, 3-(4,5-dimethylthiazol-2-yl)-2,5-diphenyl tetrazolium bromide (MTT) was used to determine if the cell survival rate of stem cells will be influenced when BP was served as a substitute for LIF.
MTT is a water-soluble tetrazolium salt which can react in the mitochondrial respiratory chain in living cells, to metabolize and reduce the tetrazolium bromide shown in the structure of MTT and to form an water-insoluble purple crystal formazan under the reaction of succinate dehydrogenase (SDH) and cytochrome c (cyt c). The amount of the produced crystal is directly proportional to the number of living cells (because the SDH will disappear from dead cells and the MTT cannot be reduced). Furthermore, mitochondrium is an organelle in cells most sensitive to the environment, and thus, the MTT assay could serve as a marker of the survival rate of cells treated by a drug.
An experimental group medium (BP5, BP10, BP20 or BP40) and a control group medium (without BP) were added respectively into a 96-well micro-culture plate to culture ES cells with an initial density of 5×10^3 per well for 24 to 72 hours. Then, 10 μl of 0.5 mg/ml MTT (Sigma) was added into each well and the cells were incubated in an incubator at 37° C. and 5% CO2 for 2 to 4 hours. The medium was removed, and 100 μl of DMSO was added into each well and maintained at 37° C. for 10 minutes. The absorbances of the samples were measured at a wavelength of 570 nm to obtain the data of the experimental group (with BP) and control group (without BP). The absorbance of control group was served as a reference to calculate the relative cell survival rate of each experimental group.

ES cells [2] = test: Embryoid body formation and differentiation of ES cells; format: cell-based, mouse; settings: BP10 medium, ES cells passaged 3 times, Tuj1, α-SMA, Gata4 staining
Description: The embryoid body formation and differentiation were also observed by immunofluorescence staining to observe the effect of BP on maintaining the pluripotency of ES cells.
An experimental group medium (BP10) was used to culture ES cells with an initial density of 1×10^4 per well in a 6-well culture dish. The ES cells were passaged 3 times and incubated for another 2 to 3 days in the Ultra Low Cluster Plate (Costar) containing the embryoid body formation medium [DMEM+20% FBS+β-mercaptoethanol (1 mM)+1% L-glutamine+1% NEAA], and then the embryoid body formation was observed. The embryoid bodies were placed into another 24-well culture dish (5 to 6 embryoid bodies/well) and incubated for another 3 days. Next, immunofluorescence staining was conducted to detect cells with an anti-Tuj1 antibody (ectoderm marker), an anti-α-SMA antibody (mesoderm marker) and an anti-Gata4 antibody (endoderm marker).

Structure (SMILES): CCCC=C1OC(=O)c2ccccc21 [BP, n-butylidenephthalide]
- relative cell survival rate (ES cells [1]; BP5 medium (about 5 μg BP/ml), 24 hours): 95.212
- relative cell survival rate (ES cells [1]; BP5 medium (about 5 μg BP/ml), 72 hours): 99.816
- relative cell survival rate (ES cells [1]; BP10 medium (about 10 μg BP/ml), 24 hours): 98.092
- relative cell survival rate (ES cells [1]; BP10 medium (about 10 μg BP/ml), 72 hours): 93.848
- relative cell survival rate (ES cells [1]; BP20 medium (about 20 μg BP/ml), 24 hours): 95.076
- relative cell survival rate (ES cells [1]; BP20 medium (about 20 μg BP/ml), 72 hours): 92.399
- relative cell survival rate (ES cells [1]; BP40 medium (about 40 μg BP/ml), 24 hours): 97.550
- relative cell survival rate (ES cells [1]; BP40 medium (about 40 μg BP/ml), 72 hours): 90.128
- survival rate of stem cells (ES cells [1]; addition of BP into the ES cell medium, result in words): will not affect the survival rate of stem cells
- embryoid body formation and differentiation (ES cells [2]): form an embryoid body and further differentiate into all three germ layer cells

Source: patent US20150056702A1, “METHOD AND KIT FOR CULTURING STEM CELLS” (China Medical University, priority 2013, published 2015)
